In patent publication US11986506B2, “Dietary supplements for inhibiting PDE5 and increasing cGMP levels” (LAILA NUTRACEUTICALS, priority 2017, dated 2024):
Structures can show the parent of a compound that is named as a salt.

Columns and labels:
male rats = test: Stimulation of sexual behaviour in male rats (pre-copulatory and copulatory counts over 30 minutes); type: in vivo, Sprague Dawley rats; conditions: 10 mg/kg oral
Description: The extracts of the current invention were then evaluated for their efficacy in vivo to stimulate sexual behavior in male rats. Briefly, healthy Sprague Dawley rats were acclimatized and randomized into various treatment groups (G1 to G6) as summarized in table 5. These animals were introduced to mating with female counterparts, which were previously treated with 100 μg/rat of estradiol benzoate and 1 mg/rat of progesterone at approximately 48 hours and 4 hours respectively prior to mating. […] The scored test parameters include frequency of licking, anogenital sniffing, climbing, genital grooming, mounting and intromission.
Separately, a set of 42 healthy female rats were selected and each of them were treated with single dose of 100 μg of estradiol benzoate and 1 mg of progesterone at approximately 48 hours and 4 hours respectively prior to introduction to mating.
One hour after test substance administration, each male rat was allowed to mate with a female rat in oestrus phase. Male sexual behaviour was measured for a period of 30 minutes with the aid of video recording. The scored test parameters include frequency of licking, anogenital sniffing, climbing, genital grooming, mounting, intromission and the results are summarized in tables 6 and 7, and depicted in FIG. 1.

cyclic GMP = test: Plasma cyclic GMP estimation by ELISA after mating period; type: in vivo, Sprague Dawley rats; conditions: 10 mg/kg oral, plasma after 30 minutes mating period
Description: After 30 minutes of mating period, blood sample were collected from all animals, plasma separated and subjected to cyclic-GMP estimation using cyclic GMP ELISA Kit supplied by Cayman (Cat No 581022) as per the procedure provided by the manufacturer. The plasma cyclic GMP modulation data is summarized in Table 8 and depicted in FIG. 2.
After 30 minutes of mating period, blood sample was collected from each animal, plasma separated and the cyclic-GMP content was estimated using cyclic GMP ELISA Kit supplied by Cayman (Cat No 581022) as per the procedure provided by the manufacturer.

For `CCCc1nn(C)c2c(=O)[nH]c(-c3cc(S(=O)(=O)N4CCN(C)CC4)ccc3OCC)nc12` [Sildenafil citrate], the “Climbing count Mean ± SE” value (male rats) was 13.50 ± 2.96, the “Genital grooming count Mean ± SE” value (male rats) was 15.33 ± 9.20 and the “Intromission frequency Mean ± SE” value (male rats) was 3.67 ± 2.55. For the same molecule, the “Mounting count Mean ± SE” value (male rats) was 5.50 ± 2.43, the “Sniffing count Mean ± SE” value (male rats) was 25.83 ± 8.55 and the “Licking count Mean ± SE” value (male rats; 1 hr before mating, 30 minutes) was 14.83 ± 11.32. The “Cyclic GMP levels (plasma)” value (cyclic GMP) was 18.79 ± 1.65 pmol/mL and the “Cyclic GMP levels (plasma)” value (cyclic GMP; listed as sildenafil citrate) was 18.79 pmol/mL.
